Here are results for 19 compounds from patent US11566017B2, “Dihydroquinazolinone compound or pharmacologically acceptable salt, and cell growth inhibitor” (RIKEN, priority 2017, dated 2023).

pIC50: −log10 of the molar value.

Experiment [1] deals with human colorectal cancer cell line COLO-320DM. The experiment can be described thus: Cell proliferation inhibitory activity test (Celltiter-Glo). The class given is cell-based. Conditions: COLO-320DM cells, 96 hours. The protocol:
The cell proliferation inhibitory activity of the compound, which had been prepared in each of Examples, against the human colorectal cancer cell line COLO-320DM was evaluated by Celltiter-Glo Luminescent Cell Viability Assay (Promega Corporation; G7573). COLO-320DM cells were cultured in RPMI-1640 medium containing 2 mM glutamine (Wako Pure Chemical Industries, Ltd; 189-02025) supplemented with 10% fetal bovine serum. The cultured cells were washed with PBS, and then dissociated with trypsin/EDTA, and a cell solution with 3×10^4 cells/mL was prepared.
Subsequently, the cell solution was seeded in a 96-well microplate (Thermo/Nunc Company; 136101) in an amount of 70 μL per well, and cultured overnight under the condition of 37° C. and 5% CO2. Next day, a test compound solution obtained by diluting the test compound (DMSO solution) with a cell culture medium (final concentration of DMSO was 1%) was added in an amount of 10 μL per well, and the mixture was reacted under the condition of 37° C. and 5% CO2 for 96 hours (a 1% DMSO solution was used as a control). Thereafter, a Celltiter-GloLuminescent Cell Viability Assay reagent (Promega Corporation; G7573) was added in an amount of 80 μL per well, the mixture was stirred with a shaker for 2 minutes while light was blocked with an aluminum foil, and the mixture was incubated at room temperature for 10 minutes.
Thereafter, a luminescence signal was measured with a luminometer (Biotech Company; Synergy). The ratio of cell proliferation in each compound addition group to cell proliferation in a control group containing no test compound solution, where cell proliferation in the control group is 100%, was calculated and the value of a compound concentration necessary for suppressing the amount of residual cells to 50% of that in the control (GI50) was calculated as the cytostatic activity. […] An unevaluated test compound was designated as “NT”.

The target in another experiment is T1, tankyrase 2 (TNKS2) (Homo sapiens, UniProt Q9H2K2).
T1 construct: tankyrase 2 (613-1,116aa, ANK5+SAM+PARP); made in house; host or cells: cell-free protein expression system
The experiment in a line: Tankyrase inhibitory activity test (ELISA, auto-poly(ADP-ribosyl)ation), tankyrase 2. It counts as biochemical. Conditions: Flag tagged tankyrase 2 (613-1,116aa, ANK5+SAM+PARP); read-out: TNKS2 (inhibitory activity against tankyrase 2, IC50). The protocol: (§1) The enzymatic activity of tankyrase 1 and the enzymatic activity of tankyrase 2 were measured by the ELISA method based on assessment of auto-poly(ADP-ribosyl)ation to evaluate the tankyrase inhibitory activity of the compound prepared in each of Examples (test compound) (inhibitory activity against tankyrase 1 (TNKS1) and inhibitory activity against tankyrase 2 (TNKS2)). First, Flag tagged tankyrase 1 (1,024-1,327aa, SAM+PARP) and tankyrase 2 (613-1,116aa, ANK5+SAM+PARP) were synthesized with a cell-free protein expression system, and diluted with a Tris buffer solution (50 mM Tris-HCl (pH 8.0), 150 mM NaCl, 10% glycerol). 50 μL of the diluted tankyrase 1 or tankyrase 2 was added to a plate with an anti-FLAG M2 monoclonal antibody immobilized thereon (Anti-FLAG High-Sensitivity M2-Coated Plate) (Sigma-Aldrich), and the plate was left standing overnight at 4° C. Thereafter, the plate was washed four times with a PBS (PBST) buffer containing 0.1% Triton X-100. For Example 84, the Anti-FLAG High-Sensitivity M2-Coated Plate was replaced by an immunoplate (Thermo Fisher Scientific), tankyrase 1 or tankyrase 2 was immobilized on the immunoplate, and the immunoplate was then blocked with Blocking One (nacalai tesque), then washed with a PBS (PBST) buffer, and used as the following plate.
(§2) Subsequently, the test compound diluted with an assay buffer (50 mM Tris-HCl (pH 8.0), 4 mM MgCl2, 0.2 mM DTT) (DMSO was used as a control) was added to each well of the plate, and the plate was left standing at room temperature for 10 minutes. Thereafter, a biotin-labeled NAD solution (225 μM NAD, 25 μM 6-Biotin-17-NAD (Travigen, Inc.)) was added and mixed as a donor substrate, and the mixture was reacted at 30° C. for 45 minutes. To blank wells was added distilled water instead of the biotin-labeled NAD solution. After the reaction, the plate was washed with a PBST buffer four times. Thereafter, HRP (horseradish peroxidase)-labeled streptavidin (Travigen, Inc.) was diluted with a PBS buffer by 1,000 times, and added to each well, and the mixture was reacted at room temperature for 20 minutes. The plate was washed with a PBST buffer four times, a chemiluminescent substrate solution TACS-Sapphire (Travigen, Inc.) was then added to each well, the mixture was reacted at room temperature for 20 minutes, and the chemiluminescence intensity was measured using a chemiluminescence measuring apparatus. For Example 84, the streptavidin was diluted by 5,000 times, the chemiluminescent substrate solution TACS-Sapphire was replaced by an ELISA POD substrate TMB solution easy (nacalai tesque), the mixture was reacted at room temperature for 30 minutes, and the chemiluminescence intensity was measured using a chemiluminescence measuring apparatus.
(§3) The residual enzymatic activity in the presence of the test compound was determined from the following expression. On the basis of the residual enzymatic activity at each of multiple concentrations of the test compound, the enzyme inhibitory activity was calculated in terms of a 50%-inhibition concentration (IC50 value) using data analysis software Origin (LightStone Corp.). Residual activity (%)={(chemiluminescence intensity with test compound added)−(chemiluminescence intensity of blank)}/{(chemiluminescence intensity of control)−(chemiluminescence intensity of blank)}

Another experiment deals with T2, tankyrase 1 (TNKS1) (Homo sapiens, UniProt O95271).
T2 construct: tankyrase 1 (1,024-1,327aa, SAM+PARP); made in house; host or cells: cell-free protein expression system
T2 sequence (O95271 1024-1327): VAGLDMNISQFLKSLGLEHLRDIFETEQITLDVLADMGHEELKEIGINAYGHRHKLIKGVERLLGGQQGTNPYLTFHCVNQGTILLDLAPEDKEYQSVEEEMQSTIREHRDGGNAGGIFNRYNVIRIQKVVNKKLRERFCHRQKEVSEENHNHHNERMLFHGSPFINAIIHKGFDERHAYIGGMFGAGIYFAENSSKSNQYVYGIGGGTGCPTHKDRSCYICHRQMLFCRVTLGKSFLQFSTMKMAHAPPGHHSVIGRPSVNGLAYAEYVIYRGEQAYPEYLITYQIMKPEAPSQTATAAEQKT
The experiment can be described thus: Tankyrase inhibitory activity test (ELISA, auto-poly(ADP-ribosyl)ation), tankyrase 1. The class given is biochemical. Conditions: Flag tagged tankyrase 1 (1,024-1,327aa, SAM+PARP); read-out: TNKS1 (inhibitory activity against tankyrase 1, IC50). The method, then: as §1, §2, §3

With `CN1c2ccccc2C(=O)NC1c1c[nH]nc1-c1ccc(-c2ccnc3ccccc23)cc1` (stereo not drawn) [Example 40, 1-Methyl-2-[3-(4-quinolin-4-ylphenyl)-1H-pyrazol-4-yl]-2,3-dihydroquinazolin-4-one], the GI50 (in general, the concentration at which growth is held to half of that of the control) in experiment [1] was at least 10000 nM. In addition, the pIC50 at tankyrase 2 (TNKS2) and on tankyrase 1 (TNKS1) was 7.30 to 7.70 in each case.
In the case of `CN1c2ccccc2C(=O)NC1c1c[nH]nc1-c1ccc(-c2ccc(N3CCNCC3)cc2)cc1` (stereo not drawn) [Example 41], in experiment [1], the GI50 was in the range of 1000 to 10000 nM. Also, the pIC50 (in general, the negative decadic logarithm of the IC50, by convention in mol/L) at tankyrase 2 (TNKS2) is 7.70 to 8.30; on tankyrase 1 (TNKS1), 7.30 to 7.70.
Consider `CN1c2ccccc2C(=O)NC1c1c[nH]nc1-c1cccc(Cl)c1` (stereo not drawn) [Example 42, 2-[3-(3-Chlorophenyl)-1H-pyrazol-4-yl]-1-methyl-2,3-dihydroquinazolin-4-one], for which the GI50 in experiment [1] was 1000 to 10000 nM. Also, the pIC50 at tankyrase 2 (TNKS2) is 7.70 to 8.30; on tankyrase 1 (TNKS1) it was 7.30 to 7.70.
The like results for `CN1c2ccccc2C(=O)NC1c1c[nH]nc1-c1ccc(Br)c(F)c1` (stereo not drawn) [Example 43, 2-[3-(4-Bromo-3-fluorophenyl)-1H-pyrazol-4-yl]-1-methyl-2,3-dihydroquinazolin-4-one] were, in that order, at least 10000 nM, above 8.30 and above 8.30.
Take `CN1CCN(c2ccc(-c3ccc(-c4n[nH]cc4C4NC(=O)c5ccccc5N4C)cc3F)cc2)CC1` (stereo not drawn) [Example 44, 2-[5-[3-Fluoro-4-[4-(4-methylpiperazin-1-yl)phenyl]phenyl]-1H-pyrazol-4-yl]-1-methyl-2,3-dihydroquinazolin-4-one]: in experiment [1], the GI50 is 1000 to 10000 nM. Also, the pIC50 on tankyrase 2 (TNKS2) and on tankyrase 1 (TNKS1) was 7.70 to 8.30 each time.
`CN1c2ccccc2C(=O)NC1c1c[nH]nc1-c1ccc(OCc2ccccc2)c(F)c1` (stereo not drawn) [Example 45, 2-[3-(3-Fluoro-4-phenylmethoxyphenyl)-1H-pyrazol-4-yl]-1-methyl-2,3-dihydroquinazolin-4-one]: in experiment [1], the GI50 fell in the range of 1000 to 10000 nM. The pIC50 on tankyrase 2 (TNKS2) and on tankyrase 1 (TNKS1) was above 8.30 in each case.
With `CCOc1ccc(-c2n[nH]cc2C2NC(=O)c3ccccc3N2C)cc1` (stereo not drawn) [Example 46, 2-[5-(4-Ethoxyphenyl)-1H-pyrazol-4-yl]-1-methyl-2,3-dihydroquinazolin-4-one], the 50% growth inhibitory concentration (GI50) in experiment [1] lay within 1000 to 10000 nM. The pIC50 on tankyrase 2 (TNKS2) and at tankyrase 1 (TNKS1) was above 8.30 in each case.
As to `CN1c2ccccc2C(=O)NC1c1c[nH]nc1-c1cc(F)cc(F)c1` (stereo not drawn) [Example 47, 2-[3-(3,5-Difluorophenyl)-1H-pyrazol-4-yl]-1-methyl-2,3-dihydroquinazolin-4-one], in experiment [1], the GI50 was at least 10000 nM. Besides, the negative-log IC50 (pIC50) is 7.70 to 8.30 at tankyrase 2 (TNKS2) and 7.30 to 7.70 at tankyrase 1 (TNKS1).
The like results for `CN1c2ccccc2C(=O)NC1c1c[nH]nc1-c1ccc(OC(F)(F)F)cc1` (stereo not drawn) [Example 48, 1-Methyl-2-[3-(4-(trifluoromethoxy)phenyl)-1H-pyrazol-4-yl]-2,3-dihydroquinazolin-4-one] were, in that order, 1000 to 10000 nM, 7.70 to 8.30 and 7.30 to 7.70.
The like results for `COc1c(F)cc(-c2n[nH]cc2C2NC(=O)c3ccccc3N2C)cc1F` (stereo not drawn) [Example 49, 2-[5-(3,5-Difluoro-4-methoxyphenyl)-1H-pyrazol-4-yl]-1-methyl-2,3-dihydroquinazolin-4-one] were, in that order, at least 10000 nM, 7.70 to 8.30 and 7.30 to 7.70.
In the same order, the values of `COc1ccc(-c2[nH]ncc2C2NC(=O)c3cccc(C)c3N2)cc1` (stereo not drawn) [Example 50, 2-[5-(4-Methoxyphenyl)-1H-pyrazol-4-yl]-8-methyl-2,3-dihydro-1H-quinazolin-4-one] are at least 10000 nM, 7.70 to 8.30 and 7.70 to 8.30.
Take `Cc1cccc2c1NC(c1cn[nH]c1-c1ccc(-c3ccc(N4CCN(C)CC4)cc3)cc1)NC2=O` (stereo not drawn) [Example 51, 8-Methyl-2-[5-[4-[4-(4-methylpiperazin-1-yl)phenyl]phenyl]-1H-pyrazol-4-yl]-2,3-dihydro-1H-quinazolin-4-one]: the GI50 in experiment [1] was in the range of 1000 to 10000 nM. Besides, the pIC50 on tankyrase 2 (TNKS2) and on tankyrase 1 (TNKS1) was 7.30 to 7.70 in each case.
Take `COc1ccc(-c2n[nH]cc2C2NC(=O)c3cccc4c3N2CC4)cc1` (stereo not drawn) [Example 52, 11-[5-(4-Methoxyphenyl)-1H-pyrazol-4-yl]-1,10-diazatricyclo[6.3.1.0^4,12]dodeca-4(12),5,7-trien-9-one]: the GI50 in experiment [1] was at least 10000 nM. For the same compound, the figures for the pIC50 on tankyrase 2 (TNKS2) and at tankyrase 1 (TNKS1) were 7.70 to 8.30 and above 8.30, respectively.
`COc1ccc(-c2n[nH]cc2C2NC(=O)c3ccc(C)cc3N2C)cc1` (stereo not drawn) [Example 53, 2-[5-(4-Methoxyphenyl)-1H-pyrazol-4-yl]-1,7-dimethyl-2,3-dihydroquinazolin-4-one]: in experiment [1], the GI50 was at least 10000 nM. Moreover, the pIC50 on tankyrase 2 (TNKS2) and at tankyrase 1 (TNKS1) was 7.70 to 8.30 each time.
Consider `Cc1cccc2c1NC(c1c[nH]nc1-c1ccc(OCC(F)(F)F)cc1)NC2=O` (stereo not drawn) [Example 54, 8-Methyl-2-[3-(4-(2,2,2-trifluoroethoxy)phenyl)-1H-pyrazol-4-yl]-2,3-dihydro-1H-quinazolin-4-one], for which, in experiment [1], the GI50 lay within 1000 to 10000 nM. The pIC50 on tankyrase 2 (TNKS2) is above 8.30; at tankyrase 1 (TNKS1) it was 7.70 to 8.30.
Take `CCOc1ccc(-c2n[nH]cc2C2NC(=O)c3cccc(C)c3N2)cc1` (stereo not drawn) [Example 55, 2-[5-(4-Ethoxyphenyl)-1H-pyrazol-4-yl]-8-methyl-2,3-dihydro-1H-quinazolin-4-one]: the GI50 in experiment [1] is 1000 to 10000 nM. The negative-log IC50 (pIC50) on tankyrase 2 (TNKS2) is above 8.30; at tankyrase 1 (TNKS1), 7.70 to 8.30.
In the same order, the values of `COc1ccc(-c2n[nH]cc2C2NC(=O)c3cccc(C)c3N2)cc1F` (stereo not drawn) [Example 56, 2-[5-(3-Fluoro-4-methoxyphenyl)-1H-pyrazol-4-yl]-8-methyl-2,3-dihydro-1H-quinazolin-4-one] are at least 10000 nM, 7.70 to 8.30 and 7.70 to 8.30.
Turning to `CCc1cccc2c1NC(c1c[nH]nc1-c1ccc(OC)cc1)NC2=O` (stereo not drawn) [Example 57, 8-Ethyl-2-[3-(4-methoxyphenyl)-1H-pyrazol-4-yl]-2,3-dihydro-1H-quinazolin-4-one], the GI50 in experiment [1] fell in the range of 1000 to 10000 nM. Also, the pIC50 was above 8.30 on tankyrase 2 (TNKS2) and 7.70 to 8.30 on tankyrase 1 (TNKS1).
In the same order, the values of `COc1ccc(-c2n[nH]nc2C2NC(=O)c3ccccc3N2C)cc1` (stereo not drawn) [Example 58, 2-[5-(4-Methoxyphenyl)-2H-1,2,3-triazol-4-yl]-1-methyl-2,3-dihydroquinazolin-4-one] are 1000 to 10000 nM, above 8.30 and 7.70 to 8.30.
